Experimental data from BindingDB's records for PubMed 11303071 (Banyu Pharmaceutical, 2001).

What was measured:
[1] = molecular target: T1, Muscarinic acetylcholine receptor M5 (Homo sapiens, UniProt P08912)
T1 sequence (P08912 whole entry): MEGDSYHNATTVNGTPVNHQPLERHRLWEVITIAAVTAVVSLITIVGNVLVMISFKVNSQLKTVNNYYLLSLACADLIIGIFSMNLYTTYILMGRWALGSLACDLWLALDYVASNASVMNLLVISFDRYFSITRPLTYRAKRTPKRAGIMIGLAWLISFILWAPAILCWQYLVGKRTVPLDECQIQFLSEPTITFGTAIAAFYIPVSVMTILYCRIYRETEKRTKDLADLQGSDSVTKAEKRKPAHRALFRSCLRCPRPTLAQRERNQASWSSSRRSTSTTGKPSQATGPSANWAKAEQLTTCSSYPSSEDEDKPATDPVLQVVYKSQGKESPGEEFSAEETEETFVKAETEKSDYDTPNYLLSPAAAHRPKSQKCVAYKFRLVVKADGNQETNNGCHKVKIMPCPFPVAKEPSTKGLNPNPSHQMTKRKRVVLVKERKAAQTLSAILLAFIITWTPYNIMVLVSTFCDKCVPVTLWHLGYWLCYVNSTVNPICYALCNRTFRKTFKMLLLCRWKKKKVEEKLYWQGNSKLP

[2] = molecular target: T2, Muscarinic acetylcholine receptor M4 (Homo sapiens, UniProt P08173)
T2 sequence (P08173 whole entry): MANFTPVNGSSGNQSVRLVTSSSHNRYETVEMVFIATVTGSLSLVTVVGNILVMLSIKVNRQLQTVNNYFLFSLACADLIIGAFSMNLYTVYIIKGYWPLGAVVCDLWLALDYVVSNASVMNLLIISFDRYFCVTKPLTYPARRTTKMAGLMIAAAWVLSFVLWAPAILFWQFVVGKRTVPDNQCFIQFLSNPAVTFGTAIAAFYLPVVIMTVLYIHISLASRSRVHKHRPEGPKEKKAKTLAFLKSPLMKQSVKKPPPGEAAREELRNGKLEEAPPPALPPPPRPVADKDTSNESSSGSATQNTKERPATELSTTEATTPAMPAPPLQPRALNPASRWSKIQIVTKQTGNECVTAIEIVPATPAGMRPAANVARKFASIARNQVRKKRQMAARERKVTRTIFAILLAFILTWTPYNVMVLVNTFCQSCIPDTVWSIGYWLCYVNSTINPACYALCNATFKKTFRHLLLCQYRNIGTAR

[3] = molecular target: Muscarinic acetylcholine receptor M3 (Rattus norvegicus, UniProt P08483)
[4] = molecular target: T3, Muscarinic acetylcholine receptor M2 (Homo sapiens, UniProt P08172)
T3 sequence (P08172 whole entry): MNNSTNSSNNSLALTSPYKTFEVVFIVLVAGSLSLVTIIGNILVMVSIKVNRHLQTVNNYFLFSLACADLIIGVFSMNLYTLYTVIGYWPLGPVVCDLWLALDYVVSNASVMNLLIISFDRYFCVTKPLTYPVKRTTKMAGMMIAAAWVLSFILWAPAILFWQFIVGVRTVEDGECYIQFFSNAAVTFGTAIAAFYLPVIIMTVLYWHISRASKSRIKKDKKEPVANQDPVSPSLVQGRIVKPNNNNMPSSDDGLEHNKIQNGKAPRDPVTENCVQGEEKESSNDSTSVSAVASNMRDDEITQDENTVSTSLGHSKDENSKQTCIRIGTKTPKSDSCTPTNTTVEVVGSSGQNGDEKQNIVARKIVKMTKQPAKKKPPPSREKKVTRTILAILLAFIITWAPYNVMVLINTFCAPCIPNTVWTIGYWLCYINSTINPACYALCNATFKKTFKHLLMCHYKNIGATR

Sequence of Muscarinic acetylcholine receptor M3 (P08483 whole entry): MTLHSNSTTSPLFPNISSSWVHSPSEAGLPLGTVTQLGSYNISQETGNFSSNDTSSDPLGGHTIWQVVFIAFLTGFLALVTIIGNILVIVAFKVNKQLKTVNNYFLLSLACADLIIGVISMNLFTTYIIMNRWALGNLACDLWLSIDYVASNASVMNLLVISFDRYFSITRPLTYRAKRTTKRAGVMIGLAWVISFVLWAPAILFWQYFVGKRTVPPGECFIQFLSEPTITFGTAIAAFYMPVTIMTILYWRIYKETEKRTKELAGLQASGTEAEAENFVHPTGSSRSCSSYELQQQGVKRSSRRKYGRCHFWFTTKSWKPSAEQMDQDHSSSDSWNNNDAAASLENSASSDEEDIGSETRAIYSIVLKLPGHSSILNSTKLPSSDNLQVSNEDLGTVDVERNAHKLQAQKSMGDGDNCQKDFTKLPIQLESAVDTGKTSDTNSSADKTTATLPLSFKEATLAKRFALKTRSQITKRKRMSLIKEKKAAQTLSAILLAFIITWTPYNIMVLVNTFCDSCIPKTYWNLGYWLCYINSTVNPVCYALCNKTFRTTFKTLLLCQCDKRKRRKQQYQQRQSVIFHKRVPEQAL

Work on `NC(=O)C(c1ccccc1)(c1ccccc1)[C@@H]1CCN(CCc2ccc3c(c2)CCO3)C1` [Enablex] yielded a Ki [1] of 2.3 nM and a Ki [2] of 8.6 nM.
`NC1=COC=C(CN2CCC(NC(=O)[C@](O)(c3ccccc3)[C@@H]3CCC(F)(F)C3)CC2)N1` [Compound A] showed a Ki [1] of 7.7 nM, a Ki [3] of 2.6 nM and a Ki [4] of 540 nM. It also gave a Ki [2] of 15 nM.
